This is an account of results in patent publication US11028079B2 (ConverGene LLC, priority 2015, dated 2021).

pKd: −log10 of the molar value.

The assay has as its target T1, BRD4 bromodomains (Homo sapiens, UniProt O60885).
T1 construct: fused on or other part: T7 phage capsid protein (phage-display fusion; the phage DNA is read out by qPCR)
Nature of the assay: BROMOscan bromodomain competition binding assay (DiscoveRx). The note with it: Kd from 11 compound concentrations ranging from 0 to 10 μM, read-out: BROMOscan Relative Activity. Summed up: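 Compounds in 0.1% DMSO/0.9% MEG competed with a solid-phase acetylated peptide for T7 phage-fused BRD4 bromodomains, with the retained bromodomain measured by qPCR.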

As to `Cc1noc(C)c1-c1ccc2nc(C(=O)NCc3ccncc3F)nc(NCc3cccc(Cl)c3)c2c1` [Example 215, 4-((3-chlorobenzyl)amino)-6-(3,5-dimethylisoxazol-4-yl)-N-((3-fluoropyridin-4-yl)methyl)quinazoline-2-carboxamide], the pKd was over 6.30.
Regarding `CC(=O)N1CCC(NC(=O)c2nc(NCc3cccc(Cl)c3)c3cc(-c4c(C)noc4C)ccc3n2)CC1` [Example 199, N-(1-acetylpiperidin-4-yl)-4-((3-chlorobenzyl)amino)-6-(3,5-dimethylisoxazol-4-yl)quinazoline-2-carboxamide], the pKd was over 6.30.
`Cc1cc(NC(=O)c2nc(NCc3cccc(Cl)c3)c3cc(-c4c(C)noc4C)ccc3n2)cc(C)n1` [Example 224, 4-((3-chlorobenzyl)amino)-6-(3,5-dimethylisoxazol-4-yl)-N-(2,6-dimethylpyridin-4-yl)quinazoline-2-carboxamide]: the pKd is 5.30 to 6.30.
Under `Cn1cc(-c2ccc3nc(Cl)nc(NCc4cncc(Cl)c4)c3c2)ccc1=O` [Example 113, 5-(2-chloro-4-(((5-chloropyridin-3-yl)methyl)amino)quinazolin-6-yl)-1-methylpyridin-2(1H)-one] stands under 5.30; under `Cc1noc(C)c1-c1ccc2nc(N3CCN(C)CC3)nc(NCc3cccc(Cl)c3)c2c1` [Example 6, N-(3-chlorobenzyl)-6-(3,5-dimethylisoxazol-4-yl)-2-(4-methylpiperazin-1-yl)quinazolin-4-amine], over 6.30; under `Cc1noc(C)c1-c1ccc2nc(C(=O)NC3CCN(C)CC3)nc(NCc3cccc(Cl)c3)c2c1` [Example 172, 4-((3-chlorobenzyl)amino)-6-(3,5-dimethylisoxazol-4-yl)-N-(1-methylpiperidin-4-yl)quinazoline-2-carboxamide], over 6.30.
Under `Cc1noc(C)c1-c1ccc2nc(-c3cnn(CCO)c3)nc(Nc3ccc(Cl)cc3)c2c1` [Example 150, 2-(4-(4-((4-chlorophenyl)amino)-6-(3,5-dimethylisoxazol-4-yl)quinazolin-2-yl)-1H-pyrazol-1-yl)ethanol] stands 5.30 to 6.30.
Consider `Cc1noc(C)c1-c1ccc2nc(-c3cnn(CC(C)(C)O)c3)nc(N3CCOC[C@H]3c3ccccc3)c2c1` [Example 263, (R)-1-(4-(6-(3,5-dimethylisoxazol-4-yl)-4-(3-phenylmorpholino)quinazolin-2-yl)-1H-pyrazol-1-yl)-2-methylpropan-2-ol], for which the pKd is over 6.30.
With `Cc1noc(C)c1-c1ccc2nc(-c3cnn(CC(=O)N(C)C)c3)nc(N3CCOC[C@@H]3c3ccccc3)c2c1` [Example 301, (S)-2-(4-(6-(3,5-dimethylisoxazol-4-yl)-4-(3-phenylmorpholino)quinazolin-2-yl)-1H-pyrazol-1-yl)-N,N-dimethylacetamide], the pKd was over 6.30.
On to `Cc1noc(C)c1-c1ccc2nc(C(=O)N3CCc4[nH]ncc4C3)nc(NCc3cncc(Cl)c3)c2c1` [Example 284, (4-(((5-chloropyridin-3-yl)methyl)amino)-6-(3,5-dimethylisoxazol-4-yl)quinazolin-2-yl)(1,4,6,7-tetrahydro-5H-pyrazolo[4,3-c]pyridin-5-yl)methanone], for which the pKd was 5.30 to 6.30.
The same measure for `Cc1noc(C)c1-c1ccc2nc(C(=O)N3CCN(CCN(C)C)CC3)nc(NCc3cccc(Cl)c3)c2c1` [Example 165, (4-((3-chlorobenzyl)amino)-6-(3,5-dimethylisoxazol-4-yl)quinazolin-2-yl)(4-(2-(dimethylamino)ethyl)piperazin-1-yl)methanone]: 5.30 to 6.30.
Turning to `Cc1noc(C)c1-c1ccc2nc(N3CCC4(CCN(C)C4=O)CC3)nc(N3CCOC[C@@H]3c3ccccc3)c2c1` [Example 320, (S)-8-(6-(3,5-dimethylisoxazol-4-yl)-4-(3-phenylmorpholino)quinazolin-2-yl)-2-methyl-2,8-diazaspiro[4.5]decan-1-one], the pKd was over 6.30.
With `CC(=O)N1CC(n2cc(-c3nc(N4CCOC[C@@H]4c4ccccc4)c4cc(-c5c(C)noc5C)ccc4n3)cn2)C1` [Example 324, (S)-1-(3-(4-(6-(3,5-dimethylisoxazol-4-yl)-4-(3-phenylmorpholino)quinazolin-2-yl)-1H-pyrazol-1-yl)azetidin-1-yl)ethan-1-one], the pKd was over 6.30.
With `Cc1noc(C)c1-c1ccc2nc(N3CCN(CCN(C)C)CC3)nc(NCc3cccc(Cl)c3)c2c1` [Example 12, N-(3-chlorobenzyl)-2-(4-(2-(dimethylamino)ethyl)piperazin-1-yl)-6-(3,5-dimethylisoxazol-4-yl)quinazolin-4-amine], the pKd is over 6.30.
`Cn1cc(-c2ccc3nc(-c4cnn(CC(N)=O)c4)nc(NCc4cncc(Cl)c4)c3c2)ccc1=O` [Example 145, 2-(4-(4-(((5-chloropyridin-3-yl)methyl)amino)-6-(1-methyl-6-oxo-1,6-dihydropyridin-3-yl)quinazolin-2-yl)-1H-pyrazol-1-yl)acetamide]: the pKd was 5.30 to 6.30.
As to `Cc1noc(C)c1-c1ccc2nc(N3CCc4c(cnn4C)C3)nc(N3CCOC[C@@H]3c3ccccc3)c2c1` [Example 289, (S)-4-(6-(3,5-dimethylisoxazol-4-yl)-2-(1-methyl-1,4,6,7-tetrahydro-5H-pyrazolo[4,3-c]pyridin-5-yl)quinazolin-4-yl)-3-phenylmorpholine], the pKd was over 6.30.
In the case of `Cn1cc(-c2ccc3nc(-c4cnn(CCC#N)c4)nc(NCc4cccc(Cl)c4)c3c2)ccc1=O` [Example 104, 3-(4-(4-((3-chlorobenzyl)amino)-6-(1-methyl-6-oxo-1,6-dihydropyridin-3-yl)quinazolin-2-yl)-1H-pyrazol-1-yl)propanenitrile], the pKd is over 6.30.
Consider `Cc1noc(C)c1-c1ccc2nc(N3CCN(CCN(C)C)CC3)nc(NCc3cccc(Br)c3)c2c1` [Example 75, N-(3-bromobenzyl)-2-(4-(2-(dimethylamino)ethyl)piperazin-1-yl)-6-(3,5-dimethylisoxazol-4-yl)quinazolin-4-amine], for which the pKd was over 6.30.
For `CNC(=O)Cn1cc(-c2nc(NC3(c4cccc(Cl)c4)CC3)c3cc(-c4c(C)noc4C)ccc3n2)cn1` [Example 181, 2-(4-(4-((1-(3-chlorophenyl)cyclopropyl)amino)-6-(3,5-dimethylisoxazol-4-yl)quinazolin-2-yl)-1H-pyrazol-1-yl)-N-methylacetamide], the pKd was over 6.30.
As to `Cn1cc(-c2ccc3nc(N4CCN(C(=O)CN)CC4)nc(NCc4cccc(Cl)c4)c3c2)ccc1=O` [Example 107, 5-(2-(4-(2-aminoacetyl)piperazin-1-yl)-4-((3-chlorobenzyl)amino)quinazolin-6-yl)-1-methylpyridin-2(1H)-one], the pKd is over 6.30.
For the compound `Cc1noc(C)c1-c1ccc2nc(C(=O)N3CCc4cnn(C)c4C3)nc(N3CCOC[C@@H]3c3ccccc3)c2c1` [Example 317, (S)-(6-(3,5-dimethylisoxazol-4-yl)-4-(3-phenylmorpholino)quinazolin-2-yl)(1-methyl-1,4,5,7-tetrahydro-6H-pyrazolo[3,4-c]pyridin-6-yl)methanone], the pKd was 5.30 to 6.30.
Regarding `Cc1noc(C)c1-c1ccc2nc(N3CCN(CCC(C)C)CC3)nc(NCc3cccc(Cl)c3)c2c1` [Example 21, N-(3-chlorobenzyl)-6-(3,5-dimethylisoxazol-4-yl)-2-(4-isopentylpiperazin-1-yl)quinazolin-4-amine], the pKd is 5.30 to 6.30.
The same measure for `Cc1noc(C)c1CNC(=O)c1nc(NCc2cccc(Cl)c2)c2cc(-c3c(C)noc3C)ccc2n1` [Example 259, 4-((3-chlorobenzyl)amino)-6-(3,5-dimethylisoxazol-4-yl)-N-((3,5-dimethylisoxazol-4-yl)methyl)quinazoline-2-carboxamide]: over 6.30.
With `Cc1nocc1-c1ccc2nc(N3CCN(CCN(C)C)CC3)nc(NCc3cccc(Cl)c3)c2c1` [Example 93, N-(3-chlorobenzyl)-2-(4-(2-(dimethylamino)ethyl)piperazin-1-yl)-6-(3-methylisoxazol-4-yl)quinazolin-4-amine], the pKd is over 6.30.
The same measure for `Cc1noc(C)c1-c1ccc2nc(N3CCN(CC(=O)N(C)C)CC3)nc(N3CCOC[C@@H]3c3ccccc3)c2c1` [Example 303, (S)-2-(4-(6-(3,5-dimethylisoxazol-4-yl)-4-(3-phenylmorpholino)quinazolin-2-yl)piperazin-1-yl)-N,N-dimethylacetamide]: over 6.30.
As for `Cn1cc(-c2ccc3nc(-c4cnn(CC(N)=O)c4)nc(NCc4cccc(Cl)c4)c3c2)ccc1=O` [Example 101, 2-(4-(4-((3-chlorobenzyl)amino)-6-(1-methyl-6-oxo-1,6-dihydropyridin-3-yl)quinazolin-2-yl)-1H-pyrazol-1-yl)acetamide], the pKd was over 6.30.
For the compound `Cc1noc(C)c1-c1ccc2nc(C3=CCNCC3)nc(NCc3cccc(Cl)c3)c2c1` [Example 31, N-(3-chlorobenzyl)-6-(3,5-dimethylisoxazol-4-yl)-2-(1,2,3,6-tetrahydropyridin-4-yl)quinazolin-4-amine], the pKd was over 6.30.
Under `Cc1noc(C)c1-c1ccc2nc(-c3cnn(C(C)(C)CO)c3)nc(NCc3cncc(Cl)c3)c2c1` [Example 138, 2-(4-(4-(((5-chloropyridin-3-yl)methyl)amino)-6-(3,5-dimethylisoxazol-4-yl)quinazolin-2-yl)-1H-pyrazol-1-yl)-2-methylpropan-1-ol] stands over 6.30; under `Cc1noc(C)c1-c1ccc2nc(N3CCN(CC(N)=O)CC3)nc(NCc3cccc(Cl)c3)c2c1` [Example 54, 2-(4-(4-((3-chlorobenzyl)amino)-6-(3,5-dimethylisoxazol-4-yl)quinazolin-2-yl)piperazin-1-yl)acetamide], over 6.30.
For `Cc1noc(C)c1-c1ccc2nc(N3CCN(CC(C)O)CC3)nc(NCc3cccc(Cl)c3)c2c1` (stereo not drawn) [Example 45, 1-(4-(4-((3-chlorobenzyl)amino)-6-(3,5-dimethylisoxazol-4-yl)quinazolin-2-yl)piperazin-1-yl)propan-2-ol], the pKd is over 6.30.
